Measured values reported in ChEMBL document CHEMBL1201862, “PubChem BioAssay data set” (2004).
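Grown in 96-well plates, cells were treated for 48 hours with each compound at five concentrations. Insufficient inhibition: endpoint recorded as highest concentration tested. GI50: concentration for 50% inhibition of growth.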 Active and inactive are the calls of the source. Rule as the data show it: active = GI50 up to about 1.1 µM and inactive = higher.

Legend:
Test in all cases: NCI anticancer screen, dose series, 48 h
KM12 = system: KM12
Malme-3M = system: Malme-3M
A549 = system: A549
SK-MEL-28 = system: SK-MEL-28
SR = system: SR
UO-31 = system: UO-31
OVCAR-3 = system: OVCAR-3
CAKI-1 = system: CAKI-1
DU-145 = system: DU-145
NCI-H226 = system: NCI-H226
OVCAR-4 = system: OVCAR-4
SN12C = system: SN12C
CCRF-CEM = system: CCRF-CEM
MDA-MB-435 = system: MDA-MB-435
SNB-75 = system: SNB-75
MDA-N = system: MDA-N
HOP-92 = system: HOP-92
SF-268 = system: SF-268
MCF7 = system: MCF7
UACC-62 = system: UACC-62

Row | Compound | GI50 (KM12) | GI50 (Malme-3M) | GI50 (A549) | GI50 (SK-MEL-28) | GI50 (SR) | GI50 (UO-31) | GI50 (OVCAR-3) | GI50 (CAKI-1) | GI50 (DU-145) | GI50 (NCI-H226) | GI50 (OVCAR-4) | GI50 (SN12C) | GI50 (CCRF-CEM) | GI50 (MDA-MB-435) | GI50 (SNB-75) | GI50 (MDA-N) | GI50 (HOP-92) | GI50 (SF-268) | GI50 (MCF7) | GI50 (UACC-62)
1 | O=C1NC(=O)C(c2c[nH]c3ccccc23)=C1c1cnc[nH]1 | 45.2 µM (inactive) | > 100 µM (inactive) | > 100 µM (inactive) | > 100 µM (inactive) | 23.6 µM (inactive) | 70.6 µM (inactive) | 82 µM (inactive) | > 100 µM (inactive) | > 100 µM (inactive) | 1.79 µM (inactive) | > 100 µM (inactive) | > 100 µM (inactive) | 47.3 µM (inactive) | 75.3 µM (inactive) | > 100 µM (inactive) | 74.3 µM (inactive) | > 100 µM (inactive) | > 100 µM (inactive) | 34.5 µM (inactive) | –
2 | COc1ccc(Nc2nc3ccccc3nc2C(=O)O)cc1OC | 66.8 µM (inactive) | 34 µM (inactive) | > 100 µM (inactive) | 50.2 µM (inactive) | > 100 µM (inactive) | 29.6 µM (inactive) | 40.2 µM (inactive) | 29.6 µM (inactive) | > 100 µM (inactive) | 57 µM (inactive) | – | 48.1 µM (inactive) | 47.3 µM (inactive) | > 100 µM (inactive) | 69.2 µM (inactive) | > 100 µM (inactive) | 27.5 µM (inactive) | 41 µM (inactive) | 40.3 µM (inactive) | 60.8 µM (inactive)
3 | CCOC(=O)c1sc2c(c1OC(=O)c1ccc(OC)cc1)c(=O)n(-c1ccccc1)c(=S)n2-c1ccccc1 | > 100 µM (inactive) | 61.7 µM (inactive) | > 100 µM (inactive) | > 100 µM (inactive) | 36.5 µM (inactive) | – | > 100 µM (inactive) | > 100 µM (inactive) | > 100 µM (inactive) | 24.9 µM (inactive) | 10.2 µM (inactive) | 75.7 µM (inactive) | > 100 µM (inactive) | > 100 µM (inactive) | > 100 µM (inactive) | > 100 µM (inactive) | 20.9 µM (inactive) | > 100 µM (inactive) | > 100 µM (inactive) | > 100 µM (inactive)
4 | C=CCN1C(N)=C(C#N)C(C#N)(C#N)C1CCC (stereo not drawn) | > 100 µM (inactive) | > 100 µM (inactive) | > 100 µM (inactive) | – | > 100 µM (inactive) | 75.2 µM (inactive) | > 100 µM (inactive) | > 100 µM (inactive) | > 100 µM (inactive) | > 100 µM (inactive) | > 100 µM (inactive) | > 100 µM (inactive) | > 100 µM (inactive) | > 100 µM (inactive) | > 100 µM (inactive) | > 100 µM (inactive) | 52.1 µM (inactive) | > 100 µM (inactive) | > 100 µM (inactive) | > 100 µM (inactive)
5 | O=P1(N(CCCl)CCCl)Oc2ccc(Cl)cc2C(C(Cl)(Cl)Cl)c2cc(Cl)ccc2O1 (stereo not drawn) | 13.1 µM (inactive) | – | 5.4 µM (inactive) | 35.2 µM (inactive) | 3.94 µM (inactive) | 10.9 µM (inactive) | 11.4 µM (inactive) | 16.5 µM (inactive) | 29.1 µM (inactive) | 17.8 µM (inactive) | 20.7 µM (inactive) | 16.6 µM (inactive) | 5.37 µM (inactive) | 18.5 µM (inactive) | 10.9 µM (inactive) | 16.2 µM (inactive) | 3.9 µM (inactive) | 28.2 µM (inactive) | 10.4 µM (inactive) | 12.6 µM (inactive)
6 | CCOP(=O)(CC1OC(CO)C(O)C1O)OCC (stereo not drawn) | > 100 µM (inactive) | > 100 µM (inactive) | > 100 µM (inactive) | > 100 µM (inactive) | > 100 µM (inactive) | > 100 µM (inactive) | > 100 µM (inactive) | > 100 µM (inactive) | > 100 µM (inactive) | – | > 100 µM (inactive) | > 100 µM (inactive) | > 100 µM (inactive) | > 100 µM (inactive) | > 100 µM (inactive) | > 100 µM (inactive) | > 100 µM (inactive) | > 100 µM (inactive) | > 100 µM (inactive) | > 100 µM (inactive)
7 | C=C1C(=O)O[C@H]2[C@H]3O[C@@H](C[C@@H]12)[C@](C)(O)CCCC(C)=CCC[C@H]3C | 14.1 µM (inactive) | – | 16.8 µM (inactive) | 11.5 µM (inactive) | 28.1 µM (inactive) | 11.4 µM (inactive) | 13.9 µM (inactive) | 10.8 µM (inactive) | 13.1 µM (inactive) | 18.1 µM (inactive) | 16.1 µM (inactive) | 11.9 µM (inactive) | 0.807 µM (active) | 3.86 µM (inactive) | 10.5 µM (inactive) | 16.1 µM (inactive) | 1.34 µM (inactive) | 8.04 µM (inactive) | 7.26 µM (inactive) | 10.2 µM (inactive)
